From patent publication US20090048287A1, “Compositions useful for treating gastrointestinal motility disorders” (priority 2003, published 2009)

How the values were obtained:
Format in all cases: in vivo, cat
[1] = test system: feline model of GERD; assay: Lower esophageal sphincter pressure (LESP), manometric recording in sedated cats; details: MKC-733 1.0 and 10 mg/kg i.v., naive and omeprazole pretreated, FIG. 2
Protocol: (§1) Experiments to determine the effects of MKC-733, omeprazole or the combination of MKC-733 and omeprazole on LESP, lower esophageal pH, esophageal motility and TLESR, in a feline model of GERD were conducted.
The cats used in the experiments were fasted overnight and sedated with ketamine (15-20 mg/kg intramuscular injection). A butterfly catheter filled with heparinized sterile saline was placed into the brachial vein and used for supplemental ketamine anesthesia and drug administration.
Each animal was fitted with a water-perfused sleeve catheter (Andorfer Inc, Greendale, Wis.) attached via pressure transducers to a minimally compliant hydrolytic pump. […] This 4 cm region was referred to as site 1 and the pressure was simultaneously recorded along this region. […] Throughout the experiment, the output from the pressure transducers was manometrically recorded using the PowerLab Chart 5 data acquisition program (ADInstruments, Colorado Springs, Colo.) on a computer using a Windows XP operating system.
The manometric pressure recording at site 1 of the catheter provided the baseline (at rest) LESP for each animal. The baseline LESP was recorded for each measurement regimen set forth in Experiments 1 and 2 below, and then compared. […]
(§2) Following instrumentation, baseline values of LESP, esophageal pH, esophageal peristalsis and TLESR were measured as described above. […]

[2] = test system: feline model of GERD; assay: Lower esophageal pH monitoring during gastroesophageal reflux in sedated cats; details: naive, MKC-733 1.0 and 10 mg/kg i.v.
Protocol: as §1
An Orion II pH probe (Medical Measurements Systems), running along with the manometric catheter, was positioned with one pH measuring site in the stomach and a second pH measuring site in the distal esophagus. pH was monitored and recorded simultaneously with the manometric recordings using a computerized data acquisition system (Medical Measurements Systems).
The pH in the lower esophagus was monitored at the same time as the manometric pressure. The pH was recorded for each measurement regimen set forth in Experiments 1 and 2.
All animals were acclimated to the facility for one week prior to testing. […]
as §2
Data is presented as mean±SEM. […] Significance of LESP treatment effects within and between experiments was evaluated using 2-Way repeated measures ANOVA. […] Significance of treatment effects for pH was evaluated using a nonparametric one-way repeated measures ANOVA (Friedman Test). […]
In 2 of the 5 animals, the 10 mg/kg dose was not administered. In 1 of the 3 remaining animals, pH was also not recorded following the […] dose.

[3] = test system: feline model of GERD; assay: Esophageal motility: peristaltic contraction amplitude after spontaneous dry swallows and balloon distension in cats
Protocol: as §1
Each animal was fitted with a water-perfused sleeve catheter (Andorfer Inc, Greendale, Wis.) attached via pressure transducers to a minimally compliant hydrolytic pump. The sleeve was positioned within the LES with the tip placed into the stomach. The total distance between recording site 0 (tip in the stomach) and recording site 2 was 4 cm. This 4 cm region was referred to as site 1 and the pressure was simultaneously recorded along this region. […] Throughout the experiment, the output from the pressure transducers was manometrically recorded using the PowerLab Chart 5 data acquisition program (ADInstruments, Colorado Springs, Colo.) on a computer using a Windows XP operating system.
The manometric pressure recordings at sites 1-5 of the sleeve catheter were recorded during primary peristalsis induced by three spontaneous dry swallows (SDS) and secondary peristalsis induced by 3 balloon distensions (BD; distension of a balloon catheter 2 cm in diameter for 5 second placed in the mid portion of the esophagus).
Esophageal motility was characterized based on the amplitude of the contractions recorded at sites 2-5 of the catheter in response to three SDS and three BD. […]

## O=C(N[C@H]1CN2CCC1CC2)c1c[nH]c2ccsc2c1=O [MKC-733, (R)—N-1-azabicyclo[2.2.2]oct-3-yl-4,7-dihydro-7-oxothieno[3,2-b]pyridine-6-carboxamide]
[1]
  LESP normalized to vehicle controls within experiments: statistically significant dose-dependent increase in LESP
[2]; FIG. 3
  percentage of time during gastroesophageal (GER) episodes when lower esophageal pH was greater than 4.0: positive trend that appeared dose-dependent
[2]; FIG. 4
  nadir pH values during GER: did not effect nadir pH values
[3]; MKC-733 1.0 and 10 mg/kg i.v., normalized to vehicle, FIG. 5
  oral-to-aboral peristaltic contraction amplitude: dose-dependent significant enhancement
[3]; MKC-733 i.v., data not shown
  difference in effect on peristaltic contraction amplitude between naive cats and those pretreated with omeprazole: no significant differences
